# Laboratory results reported in article PMC10331583, “Control of fibrosis with enhanced safety via asymmetric inhibition of prolyl‐tRNA synthetase 1” (EMBO Molecular Medicine, 2023).
# “And” between values parts separate entries of the source, which are not always exact repeats. Identical values can stand only once. Like-named read-outs stand apart in the source and are kept apart here.
# Assays:
# [1] = CellTiter‐Glo assay (cytotoxicity); details: human, WI-26 VA4 cells
# WI‐26 VA4 cells = experiment: CellTiter‐Glo assay (cytotoxicity); details: for activity at 0.0001 µM / activity at 0.0003 µM / activity at 0.001 µM / activity at 0.003 µM / activity at 0.01 µM / activity at 0.03 µM / activity at 0.1 µM / activity at 0.3 µM / activity at 1 µM / activity at 3 µM / activity at 10 µM / activity at 30 µM / activity at 100 µM: Homo sapiens
# [2] = system: TNT Quick Coupled Transcription/Translation System (luciferase synthesis); format: biochemical
compound,measurement,setting,value
Cc1c(Br)cnc2c1ncn2CC(=O)C[C@H]1NCCC[C@@H]1O [DWN11761],CC50 at 72 h,[1],294 nM
same,activity at 0.0001 µM,"WI‐26 VA4 cells; WI26VA4, read-out: CellTiter-Glo % of control, 0.1 nM, Experiment #1, replicates",101%
same,activity at 0.0001 µM,"WI‐26 VA4 cells; WI26VA4, read-out: CellTiter-Glo % of control, 0.1 nM, Experiment #2, replicates",95.4%
same,activity at 0.0003 µM,"WI‐26 VA4 cells; WI26VA4, read-out: CellTiter-Glo % of control, 0.3 nM, Experiment #1, replicates",110%
same,activity at 0.0003 µM,"WI‐26 VA4 cells; WI26VA4, read-out: CellTiter-Glo % of control, 0.3 nM, Experiment #2, replicates",103%
same,activity at 0.001 µM,"WI‐26 VA4 cells; WI26VA4, read-out: CellTiter-Glo % of control, 1 nM, Experiment #1, replicates",106%
same,activity at 0.001 µM,"WI‐26 VA4 cells; WI26VA4, read-out: CellTiter-Glo % of control, 1 nM, Experiment #2, replicates",93.8%
same,activity at 0.003 µM,"WI‐26 VA4 cells; WI26VA4, read-out: CellTiter-Glo % of control, 3 nM, Experiment #1, replicates",100%
same,activity at 0.01 µM,"WI‐26 VA4 cells; WI26VA4, read-out: CellTiter-Glo % of control, 10 nM, Experiment #1, replicates",104%
same,activity at 0.03 µM,"WI‐26 VA4 cells; WI26VA4, read-out: CellTiter-Glo % of control, 30 nM, Experiment #1, replicates",94.7%
same,activity at 0.1 µM,"WI‐26 VA4 cells; WI26VA4, read-out: CellTiter-Glo % of control, 100 nM, Experiment #1, replicates",72.9%
same,activity at 0.3 µM,"WI‐26 VA4 cells; WI26VA4, read-out: CellTiter-Glo % of control, 300 nM, Experiment #1, replicates",56.9%
same,activity at 1 µM,"WI‐26 VA4 cells; WI26VA4, read-out: CellTiter-Glo % of control, 1000 nM, Experiment #1, replicates",24.9%
same,activity at 1 µM,"WI‐26 VA4 cells; WI26VA4, read-out: CellTiter-Glo % of control, 1000 nM, Experiment #2, replicates",12.4%
same,activity at 3 µM,"WI‐26 VA4 cells; WI26VA4, read-out: CellTiter-Glo % of control, 3000 nM, Experiment #1, replicates",39.6%
same,activity at 3 µM,"WI‐26 VA4 cells; WI26VA4, read-out: CellTiter-Glo % of control, 3000 nM, Experiment #2, replicates",30.3%
same,activity at 10 µM,"WI‐26 VA4 cells; WI26VA4, read-out: CellTiter-Glo % of control, 10000 nM, Experiment #1, replicates",14.4%
same,activity at 10 µM,"WI‐26 VA4 cells; WI26VA4, read-out: CellTiter-Glo % of control, 10000 nM, Experiment #2, replicates",8.9%
same,activity at 30 µM,"WI‐26 VA4 cells; WI26VA4, read-out: CellTiter-Glo % of control, 30000 nM, Experiment #1, replicates",6.42%
same,activity at 30 µM,"WI‐26 VA4 cells; WI26VA4, read-out: CellTiter-Glo % of control, 30000 nM, Experiment #2, replicates",4.58%
same,activity at 100 µM,"WI‐26 VA4 cells; WI26VA4, read-out: CellTiter-Glo % of control, 100000 nM, Experiment #1, replicates",2.45%
same,activity at 100 µM,"WI‐26 VA4 cells; WI26VA4, read-out: CellTiter-Glo % of control, 100000 nM, Experiment #2, replicates",1.52%
same,activity at 0.0001 µM,"WI‐26 VA4 cells; WI26VA4, read-out: CellTiter-Glo % of control, average, 0.1 nM, average",102%
same,activity at 0.0003 µM,"WI‐26 VA4 cells; WI26VA4, read-out: CellTiter-Glo % of control, average, 0.3 nM, average",105%
same,activity at 0.001 µM,"WI‐26 VA4 cells; WI26VA4, read-out: CellTiter-Glo % of control, average, 1 nM, average",96.9%
same,activity at 0.003 µM,"WI‐26 VA4 cells; WI26VA4, read-out: CellTiter-Glo % of control, average, 3 nM, average",82.5%
same,activity at 0.01 µM,"WI‐26 VA4 cells; WI26VA4, read-out: CellTiter-Glo % of control, average, 10 nM, average",91.2%
same,activity at 0.03 µM,"WI‐26 VA4 cells; WI26VA4, read-out: CellTiter-Glo % of control, average, 30 nM, average",86.4%
same,activity at 0.1 µM,"WI‐26 VA4 cells; WI26VA4, read-out: CellTiter-Glo % of control, average, 100 nM, average",66.3%
same,activity at 0.3 µM,"WI‐26 VA4 cells; WI26VA4, read-out: CellTiter-Glo % of control, average, 300 nM, average",51.8%
same,activity at 1 µM,"WI‐26 VA4 cells; WI26VA4, read-out: CellTiter-Glo % of control, average, 1000 nM, average",20.8%
same,activity at 3 µM,"WI‐26 VA4 cells; WI26VA4, read-out: CellTiter-Glo % of control, average, 3000 nM, average",32.6%
same,activity at 10 µM,"WI‐26 VA4 cells; WI26VA4, read-out: CellTiter-Glo % of control, average, 10000 nM, average",11.2%
same,activity at 30 µM,"WI‐26 VA4 cells; WI26VA4, read-out: CellTiter-Glo % of control, average, 30000 nM, average",5.72%
same,activity at 100 µM,"WI‐26 VA4 cells; WI26VA4, read-out: CellTiter-Glo % of control, average, 100000 nM, average",1.91%
same,CellTiter-Glo LogIC50 (best-fit value),"WI‐26 VA4 cells; log(inhibitor) vs. response, variable slope (four parameters), concentration in nM",2.468
same,TNT-luciferase % of control,"[2]; 6 nM, Experiment #1, replicates, 0.006 µM",103.28 % of control and 100.82 % of control and 110.66 % of control
same,TNT-luciferase % of control,"[2]; 6 nM, Experiment #2, replicates, 0.006 µM",86.60 % of control and 91.24 % of control and 93.56 % of control
same,TNT-luciferase % of control,"[2]; 6 nM, Experiment #3, replicates, 0.006 µM",100.46 % of control and 97.13 % of control and 93.79 % of control
same,"TNT-luciferase % of control, average",[2]; 6 nM,97.50 % of control
same,TNT-luciferase % of control,"[2]; 20 nM, Experiment #1, replicates, 0.02 µM",108.20 % of control and 109.84 % of control (2×)
same,TNT-luciferase % of control,"[2]; 20 nM, Experiment #2, replicates, 0.02 µM",85.82 % of control and 94.33 % of control and 98.20 % of control
same,TNT-luciferase % of control,"[2]; 20 nM, Experiment #3, replicates, 0.02 µM",98.25 % of control and 93.99 % of control and 91.88 % of control
same,"TNT-luciferase % of control, average",[2]; 20 nM,98.93 % of control
same,TNT-luciferase % of control,"[2]; 60 nM, Experiment #1, replicates, 0.06 µM",130.33 % of control and 132.79 % of control and 131.97 % of control
same,TNT-luciferase % of control,"[2]; 60 nM, Experiment #2, replicates, 0.06 µM",90.46 % of control and 98.97 % of control and 95.10 % of control
same,TNT-luciferase % of control,"[2]; 60 nM, Experiment #3, replicates, 0.06 µM",100.65 % of control and 91.36 % of control and 86.32 % of control
same,"TNT-luciferase % of control, average",[2]; 60 nM,106.44 % of control
same,TNT-luciferase % of control,"[2]; 200 nM, Experiment #1, replicates, 0.2 µM",106.56 % of control and 109.84 % of control and 110.66 % of control
same,TNT-luciferase % of control,"[2]; 200 nM, Experiment #2, replicates, 0.2 µM",68.51 % of control and 71.29 % of control and 70.98 % of control
same,TNT-luciferase % of control,"[2]; 200 nM, Experiment #3, replicates, 0.2 µM",96.73 % of control and 90.18 % of control and 101.79 % of control
same,"TNT-luciferase % of control, average",[2]; 200 nM,91.84 % of control
same,TNT-luciferase % of control,"[2]; 600 nM, Experiment #1, replicates, 0.6 µM",44.18 % of control and 45.33 % of control and 50.74 % of control
same,TNT-luciferase % of control,"[2]; 600 nM, Experiment #2, replicates, 0.6 µM",46.24 % of control and 47.63 % of control and 53.81 % of control
same,TNT-luciferase % of control,"[2]; 600 nM, Experiment #3, replicates, 0.6 µM",54.77 % of control and 51.07 % of control and 57.11 % of control
same,"TNT-luciferase % of control, average",[2]; 600 nM,50.10 % of control
same,TNT-luciferase % of control,"[2]; 2000 nM, Experiment #1, replicates, 2 µM",2.25 % of control and 2.32 % of control and 2.42 % of control
same,TNT-luciferase % of control,"[2]; 2000 nM, Experiment #2, replicates, 2 µM",3.17 % of control and 3.09 % of control and 3.97 % of control
same,TNT-luciferase % of control,"[2]; 2000 nM, Experiment #3, replicates, 2 µM",3.31 % of control and 3.19 % of control and 3.30 % of control
same,"TNT-luciferase % of control, average",[2]; 2000 nM,3.00 % of control
